Source: PMC7241567 (Journal of Enzyme Inhibition and Medicinal Chemistry, 2020)

Legend:
Assay type in all cases: biochemical
KDR/VEGFR2 = molecular target: T1, KDR/VEGFR2 (Homo sapiens, UniProt P35968); assay: Reaction Biology Kinase HotSpot radiometric kinase assay
T1 construct: purchased Reaction Biology Corp. (Kinase HotSpot service)

[1] = molecular target: T2, FLT3 (Y591_V592 ins VDFREYEYD) (Homo sapiens, UniProt P36888, INS591VDFREYEYD); assay: Enzymatic activity against FLT3 mutants
T2 construct: purchased Reaction Biology Corp. (Kinase HotSpot service)

JAK3 = molecular target: T3, JAK3 (Homo sapiens, UniProt P52333); assay: Reaction Biology Kinase HotSpot radiometric kinase assay
T3 construct: purchased Reaction Biology Corp. (Kinase HotSpot service)

JNK3 = molecular target: T4, JNK3 (Homo sapiens, UniProt P53779); assay: as above
T4 construct: purchased Reaction Biology Corp. (Kinase HotSpot service)

FGFR3 = molecular target: T5, FGFR3 (Homo sapiens, UniProt P22607); assay: as above
T5 construct: purchased Reaction Biology Corp. (Kinase HotSpot service)

FLT1/VEGFR1 = molecular target: T6, FLT1/VEGFR1 (Homo sapiens, UniProt P17948); assay: as above
T6 construct: purchased Reaction Biology Corp. (Kinase HotSpot service)

c-MET = molecular target: T7, c-MET (Homo sapiens, UniProt P08581); assay: as above
T7 construct: purchased Reaction Biology Corp. (Kinase HotSpot service)

LYN = molecular target: T8, LYN (Homo sapiens, UniProt P07948); assay: as above
T8 construct: purchased Reaction Biology Corp. (Kinase HotSpot service)

BTK = molecular target: T9, BTK (Homo sapiens, UniProt Q06187); assay: as above
T9 construct: purchased Reaction Biology Corp. (Kinase HotSpot service)

FLT3 (D835Y) = molecular target: T10, FLT3 (D835Y) (Homo sapiens, UniProt P36888, D835Y); assay: Enzymatic activity against FLT3 mutants
T10 construct: purchased Reaction Biology Corp. (Kinase HotSpot service)
T10 sequence (P36888 27-993 D835Y): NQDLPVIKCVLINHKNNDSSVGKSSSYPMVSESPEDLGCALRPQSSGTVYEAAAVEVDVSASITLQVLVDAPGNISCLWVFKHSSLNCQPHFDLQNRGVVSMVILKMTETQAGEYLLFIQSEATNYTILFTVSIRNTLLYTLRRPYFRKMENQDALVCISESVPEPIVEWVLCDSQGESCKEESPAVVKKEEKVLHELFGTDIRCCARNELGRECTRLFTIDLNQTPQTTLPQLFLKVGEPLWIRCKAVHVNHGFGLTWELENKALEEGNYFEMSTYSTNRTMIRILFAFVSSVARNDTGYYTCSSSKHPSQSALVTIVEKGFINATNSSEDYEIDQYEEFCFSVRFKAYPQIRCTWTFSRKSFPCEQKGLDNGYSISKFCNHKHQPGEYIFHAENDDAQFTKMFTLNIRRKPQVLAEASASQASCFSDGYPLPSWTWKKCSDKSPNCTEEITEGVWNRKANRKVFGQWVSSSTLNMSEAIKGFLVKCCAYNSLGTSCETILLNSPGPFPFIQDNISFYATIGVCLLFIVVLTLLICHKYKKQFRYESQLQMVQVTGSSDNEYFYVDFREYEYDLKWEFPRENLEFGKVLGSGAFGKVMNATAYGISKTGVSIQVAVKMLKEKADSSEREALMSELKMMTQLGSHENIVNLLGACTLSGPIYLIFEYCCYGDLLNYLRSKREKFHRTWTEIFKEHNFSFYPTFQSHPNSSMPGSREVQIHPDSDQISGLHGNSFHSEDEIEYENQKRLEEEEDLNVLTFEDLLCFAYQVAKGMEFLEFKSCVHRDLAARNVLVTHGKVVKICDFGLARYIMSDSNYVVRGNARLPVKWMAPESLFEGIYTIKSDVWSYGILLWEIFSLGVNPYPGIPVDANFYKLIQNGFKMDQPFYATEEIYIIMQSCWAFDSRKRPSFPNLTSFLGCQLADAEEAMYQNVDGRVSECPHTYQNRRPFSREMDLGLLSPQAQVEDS

GSK3b = molecular target: T11, GSK3b (Homo sapiens, UniProt P49841); assay: Reaction Biology Kinase HotSpot radiometric kinase assay
T11 construct: purchased Reaction Biology Corp. (Kinase HotSpot service)

[2] = tested on: other kinases including FMS and cKit; assay: Kinase panel screening, overall selectivity; details: 36 different kinases, single dose of 10 µM
Procedure: Next, we investigated kinase panel screening of 7d and 7b over 36 different kinases at a single dose of 10 µM (Figure 5). […] High selectivity over cKit might be an opportunity to avoid myelosuppression toxicity, which was reported from a dual FLT3/cKit inhibitor[19–22]. It is a valuable result to secure such a kinase selectivity profile considering the similarities of the same type III receptor tyrosine kinase (FMS, cKit and FLT3).
3. Evaluation of IC50 and Selected Kinase Profiling
We used Reaction Biology Corp. Kinase HotSpotSM service (www.reactionbiology.com) for IC50 determination of all compounds and kinase profile. Assay protocol: In a final reaction volume of 25 μL, Peptide substrate, [[…]], 5 µM, ATP 10 µM, FLT3(h) (5-10 […]
mU) is incubated with 25 mM Tris pH 7.5, 0.02 mM EGTA, 0.66 mg/mL myelin basic protein, 10 mM Mg Acetate and [γ-33P-ATP] (specific activity approx. 500 cpm/pmol, concentration as required). The reaction is initiated by the addition of the Mg-ATP mix. After incubation for 40 minutes at room temperature, the reaction is stopped by the addition of 5 μL of a 3% phosphoric acid solution. 10 μL of the reaction is then spotted onto a P30 filtermat and washed three times for 5 minutes in 75 mM phosphoric acid and once in methanol prior to drying and […]

EGFR = molecular target: T12, EGFR (Homo sapiens, UniProt P00533); assay: Reaction Biology Kinase HotSpot radiometric kinase assay
T12 construct: purchased Reaction Biology Corp. (Kinase HotSpot service)

PLK1 = molecular target: T13, PLK1 (Homo sapiens, UniProt P53350); assay: as above
T13 construct: purchased Reaction Biology Corp. (Kinase HotSpot service)

FYN = molecular target: T14, FYN (Homo sapiens, UniProt P06241); assay: as above
T14 construct: purchased Reaction Biology Corp. (Kinase HotSpot service)

SYK = molecular target: T15, SYK (Homo sapiens, UniProt P43405); assay: as above
T15 construct: purchased Reaction Biology Corp. (Kinase HotSpot service)

FMS = molecular target: T16, FMS (Homo sapiens, UniProt P07333); assay: as above
T16 construct: purchased Reaction Biology Corp. (Kinase HotSpot service)

T5 sequence (P22607 23-806): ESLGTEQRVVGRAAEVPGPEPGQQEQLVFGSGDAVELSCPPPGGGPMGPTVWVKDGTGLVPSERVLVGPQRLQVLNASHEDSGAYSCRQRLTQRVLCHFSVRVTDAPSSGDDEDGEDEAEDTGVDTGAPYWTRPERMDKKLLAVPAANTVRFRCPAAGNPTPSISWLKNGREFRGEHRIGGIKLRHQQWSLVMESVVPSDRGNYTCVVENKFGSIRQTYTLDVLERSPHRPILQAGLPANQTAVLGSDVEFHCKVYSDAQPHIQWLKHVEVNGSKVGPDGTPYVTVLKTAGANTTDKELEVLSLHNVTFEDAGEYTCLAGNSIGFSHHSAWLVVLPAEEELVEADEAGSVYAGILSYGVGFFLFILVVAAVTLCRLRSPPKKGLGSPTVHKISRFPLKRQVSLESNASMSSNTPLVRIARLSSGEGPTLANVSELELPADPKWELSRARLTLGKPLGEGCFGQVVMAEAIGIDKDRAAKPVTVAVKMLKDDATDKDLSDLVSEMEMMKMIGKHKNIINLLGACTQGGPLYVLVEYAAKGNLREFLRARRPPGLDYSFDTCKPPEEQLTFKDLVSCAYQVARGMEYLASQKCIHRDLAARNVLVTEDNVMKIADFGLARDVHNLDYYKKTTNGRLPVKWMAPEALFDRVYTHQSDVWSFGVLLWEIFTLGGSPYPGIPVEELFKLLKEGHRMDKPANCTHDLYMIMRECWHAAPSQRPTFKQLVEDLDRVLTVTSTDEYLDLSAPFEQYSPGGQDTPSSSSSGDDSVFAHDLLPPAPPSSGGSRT
T9 sequence (Q06187 whole entry): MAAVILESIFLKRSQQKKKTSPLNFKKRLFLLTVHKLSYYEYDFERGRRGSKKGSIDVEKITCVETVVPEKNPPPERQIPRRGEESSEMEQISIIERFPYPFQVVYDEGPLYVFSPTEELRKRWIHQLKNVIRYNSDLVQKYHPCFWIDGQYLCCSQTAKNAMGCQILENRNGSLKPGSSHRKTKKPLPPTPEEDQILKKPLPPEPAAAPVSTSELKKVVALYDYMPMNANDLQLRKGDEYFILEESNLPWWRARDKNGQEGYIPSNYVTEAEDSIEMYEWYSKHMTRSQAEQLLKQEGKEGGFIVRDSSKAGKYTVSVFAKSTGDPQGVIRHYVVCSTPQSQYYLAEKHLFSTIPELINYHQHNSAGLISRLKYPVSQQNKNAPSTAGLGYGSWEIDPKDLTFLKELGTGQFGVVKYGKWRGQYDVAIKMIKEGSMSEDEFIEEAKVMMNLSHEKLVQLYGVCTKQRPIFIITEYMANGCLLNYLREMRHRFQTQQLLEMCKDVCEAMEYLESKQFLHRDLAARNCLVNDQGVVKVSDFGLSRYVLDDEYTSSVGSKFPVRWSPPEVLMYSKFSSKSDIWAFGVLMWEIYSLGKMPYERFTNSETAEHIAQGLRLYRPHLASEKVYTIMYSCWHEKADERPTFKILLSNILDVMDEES
T7 sequence (P08581 25-1390): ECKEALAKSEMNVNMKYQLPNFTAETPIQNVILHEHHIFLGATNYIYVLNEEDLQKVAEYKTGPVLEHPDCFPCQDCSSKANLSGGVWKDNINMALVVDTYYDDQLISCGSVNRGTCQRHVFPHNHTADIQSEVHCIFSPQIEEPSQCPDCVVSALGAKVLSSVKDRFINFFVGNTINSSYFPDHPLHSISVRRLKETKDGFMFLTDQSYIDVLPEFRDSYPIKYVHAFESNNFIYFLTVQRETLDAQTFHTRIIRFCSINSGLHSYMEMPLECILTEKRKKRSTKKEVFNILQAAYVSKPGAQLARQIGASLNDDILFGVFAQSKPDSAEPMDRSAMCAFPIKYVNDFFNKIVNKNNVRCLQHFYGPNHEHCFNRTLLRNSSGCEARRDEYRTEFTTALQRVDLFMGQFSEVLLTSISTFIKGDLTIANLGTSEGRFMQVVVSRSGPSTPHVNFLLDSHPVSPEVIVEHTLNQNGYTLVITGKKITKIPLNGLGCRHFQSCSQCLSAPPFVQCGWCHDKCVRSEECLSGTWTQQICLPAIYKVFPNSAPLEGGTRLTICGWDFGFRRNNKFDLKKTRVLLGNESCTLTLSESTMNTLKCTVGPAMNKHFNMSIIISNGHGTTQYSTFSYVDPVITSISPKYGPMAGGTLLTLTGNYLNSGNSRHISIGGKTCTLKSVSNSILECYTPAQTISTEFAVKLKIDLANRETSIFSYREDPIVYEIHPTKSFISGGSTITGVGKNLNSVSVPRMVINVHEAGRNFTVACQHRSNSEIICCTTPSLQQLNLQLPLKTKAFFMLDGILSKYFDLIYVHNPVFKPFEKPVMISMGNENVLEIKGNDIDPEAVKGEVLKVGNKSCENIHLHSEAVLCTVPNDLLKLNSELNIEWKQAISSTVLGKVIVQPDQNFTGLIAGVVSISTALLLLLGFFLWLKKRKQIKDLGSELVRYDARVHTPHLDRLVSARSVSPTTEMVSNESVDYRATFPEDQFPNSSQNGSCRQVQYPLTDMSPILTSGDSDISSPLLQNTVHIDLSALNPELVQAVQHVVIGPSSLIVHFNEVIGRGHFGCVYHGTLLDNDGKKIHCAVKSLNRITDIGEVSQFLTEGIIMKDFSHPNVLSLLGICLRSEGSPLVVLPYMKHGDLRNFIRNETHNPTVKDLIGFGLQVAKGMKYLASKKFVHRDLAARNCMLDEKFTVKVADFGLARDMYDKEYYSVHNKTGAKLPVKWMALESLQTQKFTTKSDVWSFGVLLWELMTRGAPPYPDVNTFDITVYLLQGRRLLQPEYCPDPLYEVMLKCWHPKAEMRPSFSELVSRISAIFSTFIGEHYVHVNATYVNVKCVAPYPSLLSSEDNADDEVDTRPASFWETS
T1 sequence (P35968 20-1356): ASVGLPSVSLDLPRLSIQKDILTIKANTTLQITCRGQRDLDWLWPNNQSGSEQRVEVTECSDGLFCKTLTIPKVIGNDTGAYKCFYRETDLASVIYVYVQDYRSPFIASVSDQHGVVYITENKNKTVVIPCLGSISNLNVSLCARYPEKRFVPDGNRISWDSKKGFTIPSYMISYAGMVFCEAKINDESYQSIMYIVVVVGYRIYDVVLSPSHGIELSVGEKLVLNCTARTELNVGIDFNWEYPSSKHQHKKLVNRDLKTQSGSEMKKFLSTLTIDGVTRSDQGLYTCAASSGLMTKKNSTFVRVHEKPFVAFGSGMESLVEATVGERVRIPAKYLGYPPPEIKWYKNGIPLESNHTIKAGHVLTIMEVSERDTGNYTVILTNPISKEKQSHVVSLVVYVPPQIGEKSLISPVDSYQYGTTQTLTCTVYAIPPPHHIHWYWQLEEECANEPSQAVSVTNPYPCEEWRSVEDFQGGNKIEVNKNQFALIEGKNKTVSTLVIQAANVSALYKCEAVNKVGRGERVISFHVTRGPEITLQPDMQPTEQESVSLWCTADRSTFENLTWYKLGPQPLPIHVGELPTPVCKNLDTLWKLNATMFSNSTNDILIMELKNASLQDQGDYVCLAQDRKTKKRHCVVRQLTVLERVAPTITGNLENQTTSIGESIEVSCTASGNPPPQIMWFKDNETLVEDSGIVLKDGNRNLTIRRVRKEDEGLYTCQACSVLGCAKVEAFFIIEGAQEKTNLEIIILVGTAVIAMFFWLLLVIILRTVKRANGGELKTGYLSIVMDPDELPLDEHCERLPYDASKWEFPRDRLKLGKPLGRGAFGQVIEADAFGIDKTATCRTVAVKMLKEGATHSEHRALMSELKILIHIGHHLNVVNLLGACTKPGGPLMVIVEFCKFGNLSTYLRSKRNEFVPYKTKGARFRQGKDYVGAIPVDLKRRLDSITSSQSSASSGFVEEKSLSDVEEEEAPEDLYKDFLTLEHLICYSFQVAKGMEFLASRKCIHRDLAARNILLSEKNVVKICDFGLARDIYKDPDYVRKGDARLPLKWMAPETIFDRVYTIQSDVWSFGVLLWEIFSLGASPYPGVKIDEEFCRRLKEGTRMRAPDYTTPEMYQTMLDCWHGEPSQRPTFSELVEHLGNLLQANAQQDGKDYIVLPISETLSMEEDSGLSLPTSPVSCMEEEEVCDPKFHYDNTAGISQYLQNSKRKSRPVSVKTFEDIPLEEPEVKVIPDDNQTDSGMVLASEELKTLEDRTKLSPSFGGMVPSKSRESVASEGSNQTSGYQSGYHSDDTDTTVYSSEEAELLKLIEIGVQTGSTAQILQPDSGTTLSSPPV
T11 sequence (P49841 whole entry): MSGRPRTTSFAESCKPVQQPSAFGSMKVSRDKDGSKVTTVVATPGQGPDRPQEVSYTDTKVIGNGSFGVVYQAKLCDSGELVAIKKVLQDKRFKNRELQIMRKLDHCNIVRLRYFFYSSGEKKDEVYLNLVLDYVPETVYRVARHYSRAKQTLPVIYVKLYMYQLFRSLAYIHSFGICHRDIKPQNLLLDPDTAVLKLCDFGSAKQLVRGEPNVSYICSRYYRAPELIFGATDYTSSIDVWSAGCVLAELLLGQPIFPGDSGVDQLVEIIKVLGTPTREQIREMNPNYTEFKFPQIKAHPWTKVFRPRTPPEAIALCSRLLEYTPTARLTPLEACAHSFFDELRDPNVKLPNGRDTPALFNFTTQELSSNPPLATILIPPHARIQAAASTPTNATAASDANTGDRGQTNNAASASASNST
T8 sequence (P07948 whole entry): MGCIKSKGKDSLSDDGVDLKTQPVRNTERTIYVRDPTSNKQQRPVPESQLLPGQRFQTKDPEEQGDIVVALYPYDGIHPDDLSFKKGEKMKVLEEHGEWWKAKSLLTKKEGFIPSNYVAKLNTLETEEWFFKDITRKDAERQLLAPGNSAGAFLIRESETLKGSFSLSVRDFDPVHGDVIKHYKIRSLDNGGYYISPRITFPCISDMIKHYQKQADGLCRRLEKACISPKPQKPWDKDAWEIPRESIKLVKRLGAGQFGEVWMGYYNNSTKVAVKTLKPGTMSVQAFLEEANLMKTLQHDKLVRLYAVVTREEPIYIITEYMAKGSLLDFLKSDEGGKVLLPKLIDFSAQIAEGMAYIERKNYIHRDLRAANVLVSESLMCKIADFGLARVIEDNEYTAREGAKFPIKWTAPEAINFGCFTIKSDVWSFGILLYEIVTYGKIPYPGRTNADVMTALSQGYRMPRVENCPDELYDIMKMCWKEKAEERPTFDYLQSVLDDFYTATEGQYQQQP

## Cc1oncc1C(=O)Nc1ccc2cnc(-c3cc(N4CCN(C)CC4)cc(C(F)(F)F)c3)nc2c1 [Compound 7d, 5-methyl-N-(2-(3-(4-methylpiperazin-1-yl)-5-(trifluoromethyl)phenyl)quinazolin-7-yl)isoxazole-4-carboxamide]
KDR/VEGFR2
  inhibition at 10 µM: 16.8%
[1]
  IC50: 728 nM
JAK3
  inhibition at 10 µM: 0.8%
JNK3
  inhibition at 10 µM: 19.5%
FGFR3
  inhibition at 10 µM: 1%
FLT1/VEGFR1
  inhibition at 10 µM: 5.23%
c-MET
  inhibition at 10 µM: 13.2%
LYN
  inhibition at 10 µM: 20.5%
BTK
  inhibition at 10 µM: 17.5%
FLT3 (D835Y)
  decrease of activity against FLT3-TKD (D835Y) compared to FLT3 wild type: about 2 fold
FLT3 (D835Y); FLT3 (D835Y)
  IC50: 228 nM
FLT3 (D835Y); FLT3-TKD (D835Y)
  IC50: 228 nM
GSK3b
  inhibition at 10 µM: 8.06%
[2]
  activity on other kinases in panel (in words): almost no activity
EGFR
  inhibition at 10 µM: 0%
PLK1
  inhibition at 10 µM: 0%
FYN
  inhibition at 10 µM: 19%
SYK
  inhibition at 10 µM: 22.4%
FMS
  inhibition at 10 µM: 5.49%
